Paper PMC8044163, “Vitamin D and lumisterol derivatives can act on liver X receptors (LXRs)” (Scientific Reports, 2021)

Assays:
[1] = biological target: T1, LBD of LXRβ (Homo sapiens, UniProt P55055); test: LanthaScreen TR-FRET LXRβ coactivator assay (LXR binding assay); type: biochemical; conditions: agonist; average values; read-out: LXRβ EC50
T1 construct: purchased Thermo Fisher Scientific
T1 sequence (P55055 222-460 limits assumed): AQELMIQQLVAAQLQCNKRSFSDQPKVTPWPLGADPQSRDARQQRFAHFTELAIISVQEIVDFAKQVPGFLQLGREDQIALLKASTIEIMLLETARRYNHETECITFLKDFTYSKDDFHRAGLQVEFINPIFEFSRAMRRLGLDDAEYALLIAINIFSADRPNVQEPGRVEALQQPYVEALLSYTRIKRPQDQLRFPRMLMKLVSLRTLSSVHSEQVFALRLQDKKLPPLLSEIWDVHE
Experimental: (§1) Binding assays of graded concentrations of vitamin D3 or lumisterol hydroxyderivatives to LXRα/β were performed using the LanthaScreen TR-FRET LXRα/β Coactivator kit (Thermo Fisher Scientific, Inc., Waltham, MA) following the manufacture’s protocol. Briefly, after addition of LXRα/β-LBD to the derivatives, a mixture of peptide (Fluorescein-TRAP220/DRIP-2 for LXRα or Fluorescein-D22 for LXRβ) and antibody (Tb-anti-GST) was added to the reaction followed by incubation in room temperature for 2 h. TR-FRET ratio was calculated by dividing the emission at 520 nm by the emission at 495 nm using Synergy neo2 (BioTek, Winooski, VT).

[2] = test system: genes downstream of LXR; test: qPCR of genes downstream of LXR in murine dermal fibroblasts; type: cell-based, mouse; conditions: 10^–7 M, 24 h
Experimental: All animal studies followed guidelines outlined by the NIH Guide for the Care and Use of Laboratory Animals and protocols were approved by the Institutional Animal Care and Use Committee at the NIEHS or the UAB. The study was carried out in compliance with the ARRIVE guidelines (http://www.nc3rs.org.uk/page.asp?id=1357). Skin samples from newborn C57BL/6 mice were collected at the NIEHS. Dermal fibroblasts were isolated from the skin of newborn mice, 1–2 day old. Briefly, we followed the protocols described previously. The skin was washed in PBS, cut into smaller pieces and incubated in 2.4 U/ml of dispase II (Roche) overnight at 4 °C. The dermis was separated from the epidermis and incubated in 0.1% collagenase (Roche) at 4 °C overnight. Next day, it was cut into smaller pieces and incubated for 1 h in 0.25% Trypsin (CellGrow) at 37 °C. Single cell suspension was prepared by pipetting and draining through a cell strainer. After centrifugation, cell pellets were suspended in DMEM medium containing 10% charcoal-stripped fetal bovine serum (cFBS), mouse fibroblasts growth factor (FGF) and 1% antibiotic, and inoculated into tissue culture dishes (Midwest Scientific, TPP). Cells, in early passages, from different mice were pooled together to provide representative samples for experiments. Fibroblasts were cultured in Petri dishes (10 cm in diameter) in DMEM and 10% cFBS and triplicate semi-confluent cultures were treated as described.
(§2) RNA isolated from either fibroblasts, HaCaT cells or brain was submitted for cDNA synthesis (High Capacity cDNA Reverse Transcription Kit with RNase Inhibitor, Applied Biosystems) following the manufacturers’ protocols. RT-PCR was carried out using Cyber green, in triplicates; as previously described. Approximately, 750 ng of cDNA was used for PCR reactions. GAPDH and CIC-B were used as internal controls. Primer sequences are listed in Supplementary Table 27. Data were analyzed using GraphPad Prism statistical software one way ANOVA or t-test, where appropriate; *p < 0.05; **p < 0.01; ***p < 0.001.

[3] = biological target: T2, LXRα (Homo sapiens, UniProt Q13133); test: Ligand induced translocation of LXRα to the nucleus, immunofluorescence in HaCaT; type: cell-based; conditions: 10^−7 M, 24 h
T2 construct: endogenous in cells; host or cells: HaCaT keratinocytes
T2 sequence (Q13133 1-447): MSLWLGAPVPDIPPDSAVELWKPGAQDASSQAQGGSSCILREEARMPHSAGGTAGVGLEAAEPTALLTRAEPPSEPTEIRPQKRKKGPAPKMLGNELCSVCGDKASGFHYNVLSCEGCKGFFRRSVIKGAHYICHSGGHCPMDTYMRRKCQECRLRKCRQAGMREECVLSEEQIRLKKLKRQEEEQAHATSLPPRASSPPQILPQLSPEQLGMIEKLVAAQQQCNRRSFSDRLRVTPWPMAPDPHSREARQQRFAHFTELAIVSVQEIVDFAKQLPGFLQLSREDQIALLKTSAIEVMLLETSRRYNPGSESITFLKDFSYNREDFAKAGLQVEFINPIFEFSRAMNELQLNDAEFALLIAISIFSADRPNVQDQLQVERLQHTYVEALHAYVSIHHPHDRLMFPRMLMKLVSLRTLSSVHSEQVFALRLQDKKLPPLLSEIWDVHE
Experimental: (§3) HaCaT cells were plated in DMEM plus 5% cFBS either on a sterile glass cover slip placed in a well of a 6-well plates for immunofluorescence (IF) assays or TPP Petri dishes for image-stream flow cytometry, and treated with 10^–7 M D3- or L3-hydroxyderivatives or 0.1% ethanol (vehicle) as a negative control was added to each well, and the cells were incubated for 12 or 24 h at 37 °C with 5% CO2. For IF the cells were fixed in 4% paraformaldehyde for 15 min, incubated in 0.5% Triton X-100 in phosphate-buffered saline (PBS) for 5 min, and washed 3 times in PBS. After blocking with 2% bovine serum albumin (BSA) in PBS for 1 h at room temperature, the cells were treated with an anti-LXRα antibody (Novus Biologicals, LLC, Centennial, CO) at 1:200 in PBS supplemented with 2% BSA overnight in 4 °C. After washing the slides were incubated with a mouse anti-rabbit IgG-FITC (Santa Cruz Biotechnology, Inc, Dallas, TX) at 1:200 dilution for 1.5 h at 37 °C. After washing the slides were mounted using propidium iodide (PI) (Vector Labs, Burlingame, California) as a nuclear counterstain. The slides were examined using a KEYENCE America BZ-X710 Fluorescence Microscope (Itasca, IL). The images were subsequently analyzed using the JACoP plugin for colocalization analysis with ImageJ[74]. Five separate high-power field (40×) images were converted to grayscale and analyzed for each condition. Manders’ coefficient (M1), calculated using a preset threshold, was used to quantify the degree of colocalization between PI and LXRα with 0 representing no colocalization, and 1 representing perfect colocalization.

[4] = test system: LXRα/β; test: Ligand induced translocation of LXRα/β to the nucleus, imaging flow cytometry in HaCaT; type: cell-based, human; conditions: 10^–7 M, 12 h
Experimental: as §3
For Image Stream II (Amnis, Seattle, WA, USA) cytometer analyses, HaCaT cells were detached and processed as previously described. The cells were fixed with paraformaldehyde and permeabilized in methanol containing buffer[78],[79] and Hoechst stain (r37165, ThermoFisher) and rabbit antibodies to LXRα/β (sc 377260, AF 647, SantaCruz) or VDR (sc-13133, AF 488, SantaCruz) as described previously. Data were analyzed using IDEAS software (Amnis, Seattle, WA, USA).

[5] = biological target: T3, VDR (Homo sapiens, UniProt P11473); test: Translocation of VDR to the nucleus, imaging flow cytometry in HaCaT; type: cell-based; conditions: 10^–7 M, 12 h
T3 construct: endogenous in cells; host or cells: HaCaT keratinocytes
T3 sequence (P11473 1-427): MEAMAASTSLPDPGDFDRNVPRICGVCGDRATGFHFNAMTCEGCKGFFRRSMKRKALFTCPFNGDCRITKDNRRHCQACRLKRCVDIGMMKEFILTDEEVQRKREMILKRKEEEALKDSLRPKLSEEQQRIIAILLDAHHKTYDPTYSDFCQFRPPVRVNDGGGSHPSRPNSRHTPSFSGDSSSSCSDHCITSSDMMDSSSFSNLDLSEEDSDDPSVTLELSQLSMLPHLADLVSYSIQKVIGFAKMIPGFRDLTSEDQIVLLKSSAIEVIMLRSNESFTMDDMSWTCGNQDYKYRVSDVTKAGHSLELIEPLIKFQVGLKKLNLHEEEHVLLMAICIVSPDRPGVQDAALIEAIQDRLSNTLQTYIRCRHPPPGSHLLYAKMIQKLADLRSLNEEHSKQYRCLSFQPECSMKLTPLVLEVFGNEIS

[6] = test system: LXR-response element (LXRE)-driven reporter in CHO cells; test: LXRE-driven luciferase reporter assay in CHO cells; type: cell-based; conditions: 10^–7 M
Experimental: The effects of vitamin D3 and L3 hydroxyderivatives were tested on the LXRE transcriptional activity using pGreenFire1-LXRE-in-ApoE Lentivirus (System Biosciences, Palo Alto, CA). This plasmid was transduced in CHO and HaCaT cells following the manufacture’s protocol and the cells used as a stable LXRE expressed tool. Briefly, the virus was transduced into the cells using TransDux MAX Lentivirus Transduction Enhancer (System Biosciences, Palo Alto, CA) and screened to select the transduced cells using puromycin. The transduced cells were treated with the compounds for 24 h in media containing 5% cFBS (charcoal-treated fetal bovine serum) and the luminescence was read by ONE-Glo Luciferase Assay System (Promega, Madison, WI) using Cytation 5 (BioTek, Winooski, VT).

[7] = biological target: T4, LBD of LXRα (Homo sapiens, UniProt Q13133); test: LanthaScreen TR-FRET LXRα coactivator assay (LXR binding assay); type: biochemical; conditions: agonist; average values; read-out: LXRα EC50
T4 construct: after addition of LXRα/β-LBD to the derivatives; purchased Thermo Fisher Scientific
T4 sequence (Q13133 209-447 limits assumed): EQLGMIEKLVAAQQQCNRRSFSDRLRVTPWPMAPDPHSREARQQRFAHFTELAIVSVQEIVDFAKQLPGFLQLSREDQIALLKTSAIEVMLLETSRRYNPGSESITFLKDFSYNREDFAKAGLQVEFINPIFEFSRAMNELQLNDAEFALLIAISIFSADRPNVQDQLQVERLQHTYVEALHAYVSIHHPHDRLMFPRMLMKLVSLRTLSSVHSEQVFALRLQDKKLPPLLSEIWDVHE
Experimental: as §1

[8] = test system: ABCA1; test: qPCR of ABCA1 in HaCaT keratinocytes; type: cell-based, human; conditions: 10^–7 M
Experimental: HaCaT keratinocytes were cultured as described previously. For RNA isolation the cells were maintained in TPP tissue culture petri dishes (Ø60 mm, 22.1 cm^2) in DMEM containing 10% cFBC to reach semi-confluence and then exposed to 10^–7 M compounds or a corresponding concentration of ethanol solvent.
as §2

Row | Structure (SMILES) | EC50 [1] [nM] | Cyp7a1 expression [2] | translocation of LXRα to the nucleus (immunofluorescence, Manders' coefficient) [3] | translocation of VDR from the cytoplasm to the nucleus [5] | EC50 [7] [nM] | Lpl (lipoprotein lipase) expression [2] | ApoE (apolipoprotein E) expression [2] | translocation of LXRα/β from the cytoplasm to the nucleus [4] | LXRE luciferase (transcriptional) activity ([6]; CHO and HaCaT cells (Fig. 4C)) | LXRE luciferase (transcriptional) activity ([6]; CHO cells) | Abca1 expression [2] | Abcg8 expression [2] | ABCA1 RNA expression (qPCR) [8]
1 | C=C1C(=CC=C2CCCC3(C)C2CCC3C(C)(O)CCC(O)C(C)C)CC(O)CC1O (stereo not drawn) [1,20,24(OH)3D3] |  |  |  |  |  |  |  |  | strongest stimulatory effects |  |  |  | 
2 | CC(C)CCC(O)C(C)(O)C1CCC2C3=CC=C4CC(O)CCC4(C)C3CCC21C (stereo not drawn) [20,22(OH)2L3] | 2000 |  | induced translocation | increased translocation | 1500 |  |  | increased translocation |  |  |  |  | 
3 | C=C1CC[C@H](O)C/C1=C/C=C1\CCC[C@]2(C)[C@@H]([C@H](C)CCCC(C)(C)O)CC[C@@H]12 [25(OH)D3, reference compound] | 3800 |  | induced translocation | increased translocation | 11 |  |  | increased translocation |  |  |  |  | stimulation

More lines, in order of falling EC50 [1], values ahead:

Row | EC50 [1] [nM] | Cyp7a1 expression [2] | translocation of LXRα to the nucleus (immunofluorescence, Manders' coefficient) [3] | translocation of VDR from the cytoplasm to the nucleus [5] | EC50 [7] [nM] | Lpl (lipoprotein lipase) expression [2] | Structure (SMILES) | ApoE (apolipoprotein E) expression [2] | translocation of LXRα/β from the cytoplasm to the nucleus [4] | LXRE luciferase (transcriptional) activity ([6]; CHO and HaCaT cells (Fig. 4C)) | LXRE luciferase (transcriptional) activity ([6]; CHO cells) | Abca1 expression [2] | Abcg8 expression [2] | ABCA1 RNA expression (qPCR) [8]
4 | 2600 |  |  |  | 30000 |  | C=C1CCC(O)CC1=CC=C1CCCC2(C)C1CCC2(O)C(C)O (stereo not drawn) [17,20(OH)2pD] |  |  |  | weakest stimulant |  |  | 
5 | 270 | inhibited | induced translocation | increased translocation |  |  | C=C1/C(=C\C=C2/CCC[C@@]3(C)[C@H]2CC[C@@H]3[C@@](C)(O)CCCC(C)C)C[C@@H](O)C[C@@H]1O [1,20(OH)2D3] | enhanced | increased translocation |  |  |  |  | 
6 | 21 | inhibited | induced translocation | increased translocation | 1800 | inhibited | CC(C)CCC[C@](C)(O)[C@H]1CC[C@H]2C3=CC=C4C[C@@H](O)CC[C@@]4(C)[C@@H]3CC[C@@]21C [20(OH)L3] | inhibited | increased translocation |  |  | inhibited | inhibited | 
7 | 3.8 |  |  |  |  |  | C=C1C(=CC=C2CCCC3(C)C2CCC3C(C)(O)CCCC(C)(C)O)CC(O)CC1O (stereo not drawn) [1,20,25(OH)3D3] |  |  | strongest stimulatory effects |  |  |  | 
